From US9464064B2, “HCV helicase inhibitors and methods of use thereof” (University of Kansas, priority 2011, dated 2016)

Biological target: T1, HCV NS3 helicase NS3h_1b(con1) (Hepatitis C virus genotype 1b, UniProt Q9WMX2)
T1 construct: truncated C-terminally His-tagged NS3 proteins lacking the N-terminal protease, called NS3h; His-tag (C); made in house
Test: MBHA screen of NCI mechanistic set library at 20 μM (percent inhibition, compound interference)
Type: biochemical
Settings: compounds at 20 μM; for Inh. (%) (Inhibition): calculated from Equation 1
Procedure: All molecular beacon-based helicase assays (MBHAs) were performed according to known methods (Belon & Frick (2008) supra; Belon & Frick (2009) supra). […] In each flat, black 384-well plate, 56 compounds were tested, in triplicate, along with three negative controls (DMSO only), three positive controls (500 nM dT20), and two wells with no enzyme. Fluorescence was read before ATP (F0) addition and 30 minutes after ATP was added to 1 mM (F30) using a Tecan Infinite M200 fluorescence microplate reader with excitation and emission wavelengths set to 643 and 670 nm, respectively. Percent inhibition was calculated with equation 1, and compound interference in the MBHA was calculated with equation 2.
In Equations 1 and 2, Fc0 is the fluorescence of the reactions containing the test compound before adding ATP, Fc30 is the fluorescence of the test compound reaction 30 minutes after adding ATP. F(−)0 is the average of three DMSO-only negative control reactions before adding ATP and F(−)30 is the average of three DMSO-only reactions 30 minutes after adding ATP.
To identify HCV helicase inhibitors, the MBHA was first used to screen the National Cancer Institute Developmental Therapeutics Program's mechanistic set library. In total, 827 compounds (at 20 μM) were screened using a MBHA with a DNA substrate (Table 1). Compounds were ranked by their ability to inhibit HCV helicase-catalyzed DNA unwinding as calculated from Equation 1.
Compound interference in the MBHA was evaluated by comparing the fluorescence of reactions containing each compound to the fluorescence of DMSO-only negative controls before ATP was added.

[1] = assay interference calculated with Equation 2 (fluorescence vs DMSO-only controls before ATP)
[2] = MBHA with DNA substrate, assay interference calculated with Equation 2

T1 sequence (Q9WMX2 1192-1657): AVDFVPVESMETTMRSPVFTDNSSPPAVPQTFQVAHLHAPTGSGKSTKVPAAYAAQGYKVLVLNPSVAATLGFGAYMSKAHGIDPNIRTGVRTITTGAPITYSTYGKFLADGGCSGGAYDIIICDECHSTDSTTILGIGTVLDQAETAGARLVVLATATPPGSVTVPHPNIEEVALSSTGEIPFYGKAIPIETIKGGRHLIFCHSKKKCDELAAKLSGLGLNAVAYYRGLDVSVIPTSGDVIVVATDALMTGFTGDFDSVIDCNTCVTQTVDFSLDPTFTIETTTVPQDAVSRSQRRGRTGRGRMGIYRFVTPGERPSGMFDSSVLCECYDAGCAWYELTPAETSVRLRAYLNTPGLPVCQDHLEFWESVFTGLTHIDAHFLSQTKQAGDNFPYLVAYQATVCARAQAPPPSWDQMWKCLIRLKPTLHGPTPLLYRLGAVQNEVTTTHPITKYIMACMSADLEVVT

SMILES	Inh. (%) (Inhibition) (MBHA with a DNA substrate)	Int.* (Ratio) (Interference) [1]	Int.* (Ratio) (Interference) [2]	Inh. (%) (Inhibition) (MBHA with DNA substrate)
Nc1nc2c(ncn2[C@@H]2O[C@H](CO)[C@@H](O)[C@H]2O)c(=O)[nH]1 [Compound 19994]	10.4%	1.05 Ratio		
N.N.[Cl][Pt][Cl] [Compound 119875]			0.83 Ratio	25.1%
O=C1Cc2c([nH]c3ccc(Br)cc23)-c2ccccc2N1 [Compound 664704]			0.98 Ratio	−10.6%
O=C1C=CC(CC(=O)c2ccc3ccccc3c2)O1 (centres unmarked) [Compound 634650]	−4.4%	1.12 Ratio		
Cc1ccccc1NC(=O)/C=N/O [Compound 625639]			1.09 Ratio	−17.7%
Nc1nc(N)c(-c2cccc(C(F)(F)F)c2)c(Cc2cccc(C(F)(F)F)c2)n1 [Compound 71669]			1.06 Ratio	12.4%
C/C(=N\NC(=S)N(C)C)c1ccccn1.[Cu][Br] [Compound 635448]			0.93 Ratio	0.8%
CCC1CN2CCc3cc(OC)c(OC)cc3C2CC1CC1c2cc(OC)c(OC)cc2CCN1C(=O)C1CCCN1C(=O)OCc1ccccc1 (centres unmarked) [Compound 103248]			0.92 Ratio	−11.6%
Cc1ccc(NC(=O)c2cccc([N+](=O)[O-])c2O)c(C)c1 [Compound 79456]			0.97 Ratio	−14.5%
C=C1C(=O)C2=CC1CCC(=O)C1(C)CCC(OC(C)=O)C(C)(C)C1CC2O (centres unmarked) [Compound 302979]			0.89 Ratio	−8.3%
C(=C/c1nc2ccccc2o1)/c1ccc2c(c1)OCO2 [Compound 176655]			1.08 Ratio	0.3%
Cc1nc2c(o1)C(=O)c1ccccc1C2=Nc1ccccc1 [Compound 650573]			0.86 Ratio	−14.3%
Cl.Nc1nc(N)c2ncn(-c3ccccc3)c2n1 [Compound 29603]	−5.0%	0.99 Ratio		
COc1cc(C[C@H]2c3cc(OC)c(OC)cc3CCN2C)c(Oc2cc3c(cc2OC)-c2c(OC)c(OC)cc4c2[C@H](C3)N(C)CC4)cc1OC [Compound 68075]			1.02 Ratio	23.1%
O=c1[nH]c(=O)n(C2OC(CO)C(O)C2O)cc1F (centres unmarked) [Compound 146604]			1.12 Ratio	6.1%
CCOC(=O)Nc1cc2c(c(N)n1)N=C(c1ccccc1)CN2 [Compound 330770]			0.91 Ratio	−1.6%
O=C(NC(=O)c1c(Cl)nc2sccn12)Nc1ccc(Cl)cc1 [Compound 633209]	9.9%	0.87 Ratio		
CC12C(=O)OC(=O)C1(C)C1CCC2O1 (centres unmarked) [Compound 61805]			0.95 Ratio	−0.5%
CC[C@@]1(O)C[C@H](O[C@H]2C[C@H](N(C)C)[C@H](O[C@H]3C[C@H](O)[C@H](O[C@H]4CCC(=O)[C@H](C)O4)[C@H](C)O3)[C@H](C)O2)c2c(cc3c(c2O)C(=O)c2c(O)cccc2C3=O)[C@@H]1C(=O)OC [Compound 208734]			0.56 Ratio	56.5%
C=C1CC[C@@H]2[C@](C)(CO)[C@H](O)CC[C@@]2(C)[C@@H]1C/C=C1/C(=O)OC[C@H]1O [Compound 383468]	9.4%	0.98 Ratio		
CC(=O)[O][Pb]([O]C(C)=O)([c]1ccccc1)[c]1ccccc1 [Compound 173046]			0.93 Ratio	−12.2%
CC(=O)N=C1N(/C=C2\C(=O)Oc3ccccc3C2=O)C(=O)/C(=C/c2ccccc2Cl)N1C [Compound 658494]			0.95 Ratio	6.7%
CNc1nc(N(C)C)nc(N(C)C)n1 [Compound 118742]	10.6%	1.01 Ratio		
CCCCCCCCCCCCCCCCCCOCC(COCCOCC[N+]1(CCCCCC(=O)[O-])CCCC1)Oc1ncccn1 (centres unmarked) [Compound 623527]	−21.1%	0.98 Ratio		
Cl.NC(N)=N/N=C(\c1ccc(Cl)cc1)C1CC1 [Compound 74420]	−6.1%	1.10 Ratio		

SMILES	Inh. (%) (Inhibition) (MBHA with a DNA substrate)	Int.* (Ratio) (Interference) [1]	Int.* (Ratio) (Interference) [2]	Inh. (%) (Inhibition) (MBHA with DNA substrate)
O=C1C(Cl)=C(N2CCN(C3=C(Cl)C(=O)c4ccccc4C3=O)CC2)C(=O)c2ccccc21 [Compound 40341]	−6.4%	1.09 Ratio		
CC(=O)OC1C(O)C(C)OC(OC2C(OC(=O)C3CCC4C(C3)OC3(CC(OC(=O)/C=C/c5ccccc5)C(C)CO3)C43CO3)OC(C)C(O)C2OC(C)=O)C1O (centres unmarked) [Compound 328426]	−3.0%	1.00 Ratio		
COC(=O)[C@@H]1[C@H](O)[C@H](C)[C@H](O)[C@H](C)/C=C\C=C(/C)C(=O)Nc2c(C)c(OC(C)=O)c3c(c2O)C(=O)C(C)=C2OCOC(=C23)/C(C)=C/[C@@](C)(O)[C@H](O)[C@@H](C)[C@H]1OC(C)=O [Compound 156215]	−23.4%	1.02 Ratio		
COc1ccc(Cc2nc3ccccc3s2)cc1OC [Compound 632233]			1.04 Ratio	−2.7%
CC(C)CCCCCCCCCCCCC(=O)NCC(=O)N[C@@H]1[C@@H](O)[C@H](O)[C@@H](Nc2ncnc3nc[nH]c23)O[C@H]1[C@@H](O)CO [Compound 65104]	−22.3%	1.01 Ratio		
Cc1cc(=O)[nH]c(NN2C(Cl)C(=O)C2c2cccc(Cl)c2)n1 (centres unmarked) [Compound 653012]			0.91 Ratio	17.7%
COc1ccc(C2=Nc3ccccc3SC(C)C2)cc1 (centres unmarked) [Compound 636817]	−30.3%	1.07 Ratio		
N#CC(NCc1cccc(CNC(C#N)c2ccccc2)c1)c1ccccc1 (centres unmarked) [Compound 681730]			0.88 Ratio	−2.0%
N#CCCN(c1ccc(C=O)cc1)S(=O)(=O)c1ccccc1 [Compound 637914]			1.01 Ratio	−11.0%
C[C@@H]1C[C@H]2CC[C@H](O2)[C@H](C)C(=O)O[C@@H](C)C[C@@H]2CC[C@@H](O2)[C@@H](C)C(=O)O[C@H](C)C[C@H]2CC[C@H](O2)[C@H](C)C(=O)O[C@@H](C)C[C@@H]2CC[C@@H](O2)[C@@H](C)C(=O)O1 [Compound 52141]			0.83 Ratio	−11.6%
O=c1oc2ccccc2cc1-c1ccc([N+](=O)[O-])cc1 [Compound 215989]			0.82 Ratio	21.9%
CCN(CCO)CCNc1ccc(C)c2sc3ccccc3c(=O)c12 [Compound 20534]			0.96 Ratio	15.7%
CC12CC(Br)(Br)C(=O)C3C1CCCC32 [Compound 624358]	−4.4%	1.05 Ratio		
COc1ccc(O)cc1 [Compound 4960]	−4.5%	0.90 Ratio		
CN(C)c1ccc(/C=c2/sc3nc(=O)c(-c4ccccc4NC(=O)C(F)(F)F)nn3c2=O)cc1 [Compound 623095]			0.81 Ratio	−15.3%
COc1ccc2nc3cc([N+](=O)[O-])ccc3c(NNc3ccccc3)c2c1 [Compound 689872]			1.01 Ratio	−2.4%
CC(=O)OCc1c2ccccc2c(C)c2c1cc(F)c1ccccc12 [Compound 623135]			0.87 Ratio	36.6%
CC(C)(Br)C(=O)C(Br)Br [Compound 1027]	7.0%	0.91 Ratio		
Cc1cc2cc3cc(C)c(N)cc3nc2cc1N [Compound 13973]			0.28 Ratio	31.8%
COc1ccc(-c2cc(=O)c3c(OC)c(OC)c(OC)cc3o2)cc1 [Compound 53908]			0.82 Ratio	26.0%
C[Si](C)(CN)CN.[Cl][Pt][Cl] [Compound 603577]			0.93 Ratio	13.5%
Nc1nc(=S)c2ncn([C@@H]3C[C@H](O)[C@@H](CO)O3)c2[nH]1 [Compound 71851]	10.2%	0.94 Ratio		
COc1ccc2ccccc2c1C1OC(=O)c2ccccc21 (centres unmarked) [Compound 638504]			0.90 Ratio	−2.7%
CC1=CC(=C(c2ccc(N)cc2)c2ccc(N)cc2)C=CC1=N.Cl [Compound 93739]			0.81 Ratio	−13.3%
